Test results reported in PMC12285266, “Function and regulation of pob genes for 4-hydroxybenzoate catabolism in Agrobacterium tumefaciens” (Applied and Environmental Microbiology, 2025).

Columns and labels:
[1] = biological target: T1, PobA (Atu4544), GST-atu4544 (Agrobacterium fabrum, UniProt Q7CV80); experiment: HPLC of substrate consumption and protocatechuate formation; assay type: biochemical; conditions: NADPH or NADH 0.4 mM, FAD 5 uM, 0.5 mM substrate, 50 mM Tris-Cl pH 7.4, 30 C; GST-tagged enzyme
T1 construct: full ORF (1,173 bp) in pGEX-4T-1, N-terminal GST tag kept, E. coli BL21(DE3), about 70 kDa with tag

[2] = biological target: T2, PobR (Atu4545), HIS-atu4545 (Agrobacterium fabrum, UniProt Q7CV81); experiment: EMSA, effect on PobR/DNA complex formation; assay type: binding; conditions: FAM-labelled atu4544-atu4545 intergenic DNA; varying concentrations; pH 8.0, 25 C
T2 construct: full ORF (924 bp) in pET30a, N-terminal His tag kept, E. coli BL21(DE3)
T2 sequence (Q7CV81 1-307): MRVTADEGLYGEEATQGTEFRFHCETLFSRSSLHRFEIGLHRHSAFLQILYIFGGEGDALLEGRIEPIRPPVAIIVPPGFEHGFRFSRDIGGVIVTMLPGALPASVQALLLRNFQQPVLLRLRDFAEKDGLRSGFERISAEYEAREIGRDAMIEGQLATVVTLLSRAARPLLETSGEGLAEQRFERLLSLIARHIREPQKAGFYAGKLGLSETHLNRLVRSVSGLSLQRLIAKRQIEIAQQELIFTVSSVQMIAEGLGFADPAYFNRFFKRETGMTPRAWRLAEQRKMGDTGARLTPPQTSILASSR

[3] = biological target: T3, PobR (HIS-atu4545) (Agrobacterium tumefaciens C58) (UniProt Q7CV81); experiment: competition; conditions: EMSA: per 50 mL binding buffer 0.394 g Tris-base, 0.186 g KCl, 0.019 g EDTA-2Na, 10% glycerol, 0.008 g DTT (about 65 mM Tris, 50 mM KCl, 1 mM EDTA, 1 mM DTT) …
T3 sequence: T2 sequence (Q7CV81 1-307)

T1 sequence (Q7CV80 1-390): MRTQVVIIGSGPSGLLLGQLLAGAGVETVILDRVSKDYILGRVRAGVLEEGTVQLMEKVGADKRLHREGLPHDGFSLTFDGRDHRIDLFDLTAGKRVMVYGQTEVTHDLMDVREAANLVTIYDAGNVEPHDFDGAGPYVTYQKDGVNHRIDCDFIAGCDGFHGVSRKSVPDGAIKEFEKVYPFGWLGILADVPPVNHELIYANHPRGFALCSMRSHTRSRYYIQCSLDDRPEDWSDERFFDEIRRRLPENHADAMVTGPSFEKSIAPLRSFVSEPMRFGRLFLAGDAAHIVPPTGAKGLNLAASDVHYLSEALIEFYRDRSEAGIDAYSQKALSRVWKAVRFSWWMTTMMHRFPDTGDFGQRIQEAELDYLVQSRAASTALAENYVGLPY

Compound	binding [3]	also measured
O=C(O)c1ccc(O)cc1 [4-hydroxybenzoate]	–	HPLC of substrate consumption and protocatechuate formation [1]: Atu4544 (PobA) catalyzed the hydroxylation of 4-hydroxybenzoate to produce protocatechuate
O=C(O)CCCCC(=O)O [adipic acid]	–	EMSA, effect on PobR/DNA complex formation [2]: The increased adipic acid seemed to hinder the binding of the PobR/DNA probe
CATCGTGACGATCACTCCACCGATATCGCGTGAAAAGCGGAAGCCATGTTCGAAACCCGGTGGCACGATGATGGCGACCGGCGGGCGGATCGGCTCGATGCGGCCTTCCAGCAACGCATCGATCGTCGACCTGCAGGCA (double strand) [unrelated DNA (pobR-inter)]	no binding	–
CATCTCACCATCACTCCTCCGTGCGATGGTCGGATTGTGCAATTTACAGACAGAAAAGTCCATTGAGCTTGTGGCCGGTCTTGGTCAATTTCTTGACCGGAGACAAGTTCGGGAGGACATCATCGTCGACCTGCAGGCA (double strand) [unlabeled intergenic competitor]	binds	–
